The assay concerns the target T1, glucocorticoid receptor (Homo sapiens, UniProt P04150).
T1 construct: expressed in transfected cells
T1 sequence (P04150 524-758 limits assumed): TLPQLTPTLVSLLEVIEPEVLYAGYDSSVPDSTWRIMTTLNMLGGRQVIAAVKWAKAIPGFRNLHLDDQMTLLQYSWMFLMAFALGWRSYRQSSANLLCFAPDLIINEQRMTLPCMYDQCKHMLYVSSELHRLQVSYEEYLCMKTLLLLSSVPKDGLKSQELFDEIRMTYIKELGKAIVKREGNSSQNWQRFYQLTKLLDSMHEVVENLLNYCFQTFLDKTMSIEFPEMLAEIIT
Kind of assay: Agonistic mode of action on the glucocorticoid receptor (CHO-Gal4/GR luciferase reporter cell line). The class given is cell-based. As to conditions: range class observed in the agonistic assay or the antagonistic assay (CHO-Gal4/GR reporter cells); table does not say which mode applies per example. In a few lines:
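CHO cells stably carrying GAL4 DBD–GR ligand-binding-domain fusion and GAL4-UAS firefly luciferase reporter, 5000 cells/well grown 24 h, then compounds added in Opti-MEM at 8 half-log concentrations from 10 μM to 0.003 μM (0.5% DMSO), quadruplicates. Agonist-induced luminescence read on FLIPR Tetra; EC50 calculated.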
(Reporter assays use an easily measured gene product as a stand-in for the process of interest.)

In turn, `Cc1c(-c2cc(F)cc3c(C)c[nH]c23)ccc2c1-n1c(C)nnc1C(C)(C)N2` [Example 452, 8-(5-Fluoro-3-methyl-1H-indol-7-yl)-1,4,4,9-tetramethyl-5H-[1,2,4]triazolo[4,3-a]quinoxaline] came in with an IC50 or EC50 (agonist or antagonist mode not specified) of less than 100 nM. Turning to `Cc1nnc2n1-c1c(cc(F)c(-c3cc(F)cc4c3ccn4C3CC3)c1C(F)(F)F)NC2(C)C` [Example 88, 8-(1-Cyclopropyl-6-fluoro-1H-indol-4-yl)-7-fluoro-1,4,4-trimethyl-9-(trifluoromethyl)-5H-[1,2,4]triazolo[4,3-a]quinoxaline], the IC50 or EC50 (agonist or antagonist mode not specified) is less than 100 nM. Then `Cc1nnc2n1-c1c(cc(F)c(-c3ccc(F)c4c3ccn4S(C)(=O)=O)c1C(F)(F)F)NC2(C)C` [Example 484, 7-Fluoro-8-(7-fluoro-1-methyl-sulfonyl-1H-indol-4-yl)-1,4,4-trimethyl-9-(trifluoromethyl)-5H-[1,2,4]triazolo[4,3-a]quinoxaline], with 100 to 1000 nM; and `Cc1nnc2n1-c1c(cc(F)c(-c3cccc4c3cc(C(F)(F)F)n4S(C)(=O)=O)c1F)NC2(C)C` [Example 271, 7,9-Difluoro-1,4,4-trimethyl-8-[1-methylsulfonyl-2-(trifluoromethyl)-1H-indol-4-yl]-5H-[1,2,4]triazolo [4,3-a]quinoxaline], with 1000 to 15000 nM.

The molecule `CC#Cc1c[nH]c2c(-c3c(F)cc4c(c3C)-n3c(CCOC)nnc3C(C)(C)N4)cc(F)cc12` [Example 79, 7-fluoro-8-(5-fluoro-3-(prop-1-yn-1-yl)-1H-indol-7-yl)-1-(2-methoxyethyl)-4,4,9-trimethyl-4,5-dihydro-[1,2,4]triazolo[4,3-a]quinoxaline] came in with an IC50 or EC50 (agonist or antagonist mode not specified) of 1000 to 15000 nM.

Molecule `COc1cc2c(c(C(F)(F)F)c1-c1cc(F)cc3c(C)c[nH]c13)-n1c(C)nnc1C(C)(C)N2` [Example 459, 8-(5-Fluoro-3-methyl-1H-indol-7-yl)-7-methoxy-1,4,4-trimethyl-9-(trifluoromethyl)-5H-[1,2,4]triazolo[4,3-a]quinoxaline] displayed an IC50 or EC50 (agonist or antagonist mode not specified) of less than 100 nM.

The molecule `Cc1nnc2n1-c1c(cc(F)c(-c3cccc4c3ccn4C3CC3)c1C(F)F)NC2(C)C` [Example 514, 8-(1-Cyclopropyl-1H-indol-4-yl)-9-(difluoro-methyl)-7-fluoro-1,4,4-trimethyl-5H-[1,2,4]triazolo[4,3-a]quinoxaline] yielded an IC50 or EC50 (agonist or antagonist mode not specified) of 100 to 1000 nM. With `Cc1nnc2n1-c1c(cc(F)c(-c3cc(F)cc4c3cnn4S(C)(=O)=O)c1C(F)(F)F)NC2(C)C` [Example 454, 7-Fluoro-8-(6-fluoro-1-methylsulfonyl-1H-indazol-4-yl)-1,4,4-trimethyl-9-(trifluoromethyl)-5H-[1,2,4]triazolo[4,3-a]quinoxaline], the IC50 or EC50 (agonist or antagonist mode not specified) lay in the range of 100 to 1000 nM.

For the molecule `Cc1c(-c2cccc3c2ccn3S(C)(=O)=O)c(Cl)cc2c1-n1c(C)nnc1C(C)(C)N2` [Example 317, 7-Chloro-1,4,4,9-tetramethyl-8-(1-methylsulfonyl-1H-indol-4-yl)-5H-[1,2,4]triazolo[4,3-a]quinoxaline], the IC50 or EC50 (agonist or antagonist mode not specified) lay in the range of 1000 to 15000 nM. `Cc1nnc2n1-c1c(cc(F)c(-c3cccc4c(C5CC5)c[nH]c34)c1C(F)(F)F)NC2(C)C` [Example 87, 8-(3-cyclopropyl-1H-indol-7-yl)-7-fluoro-1,4,4-trimethyl-9-(trifluoromethyl)-4,5-dihydro-[1,2,4]triazolo[4,3-a]quinoxaline] gave an IC50 or EC50 (agonist or antagonist mode not specified) of 100 to 1000 nM. Molecule `COc1c(-c2cccc3c2cnn3C)c(F)cc2c1-n1c(C)nnc1C(C)(C)N2` [Example 264, 7-Fluoro-9-methoxy-1,4,4-trimethyl-8-(1-methyl-1H-indazol-4-yl)-5H-[1,2,4]triazolo[4,3-a]quinoxaline] displayed an IC50 or EC50 (agonist or antagonist mode not specified) of 100 to 1000 nM. `COc1cc2c(c(C(F)(F)F)c1-c1cccc3c1ccn3S(C)(=O)=O)-n1c(C)nnc1C(C)(C)N2` [Example 310, 7-Methoxy-1,4,4-trimethyl-8-(1-methylsulfonyl-1H-indol-4-yl)-9-(trifluoromethyl)-5H-[1,2,4]triazolo[4,3-a]quinoxaline] showed an IC50 or EC50 (agonist or antagonist mode not specified) of 100 to 1000 nM. For `Cc1cc2c(c(F)c1-c1cccc3c(C)c[nH]c13)-n1c(C)nnc1C(C)(C)N2` [Example 359, 9-Fluoro-1,4,4,7-tetramethyl-8-(3-methyl-1H-indol-7-yl)-5H-[1,2,4]triazolo[4,3-a]quinoxaline], the IC50 or EC50 (agonist or antagonist mode not specified) was 100 to 1000 nM.

`CC(=O)n1ccc2c(-c3c(F)cc4c(c3F)-n3c(C)nnc3C(C)(C)N4)cccc21` [Example 20, 1-(4-(7,9-difluoro-1,4,4-trimethyl-4,5-dihydro-[1,2,4]triazolo[4,3-a]quinoxalin-8-yl)-1H-indol-1-yl)ethanone] showed an IC50 or EC50 (agonist or antagonist mode not specified) of 100 to 1000 nM. `CCc1c(-c2cc(F)cc3c2ccn3CCO)c(F)cc2c1-n1c(C)nnc1C(C)(C)N2` [Example 44, 2-(4-(9-ethyl-7-fluoro-1,4,4-trimethyl-4,5-dihydro-[1,2,4]triazolo[4,3-a]quinoxalin-8-yl)-6-fluoro-1H-indol-1-yl)ethanol] returned an IC50 or EC50 (agonist or antagonist mode not specified) of 100 to 1000 nM.

As for `Cc1nnc2n1-c1c(cc(F)c(-c3cc(F)cc4c3ccn4S(C)(=O)=O)c1C(F)(F)F)NC2(C)C` [Example 37, 7-fluoro-8-(6-fluoro-1-(methylsulfonyl)-1H-indol-4-yl)-1,4,4-trimethyl-9-(trifluoromethyl)-4,5-dihydro-[1,2,4]triazolo[4,3-a]quinoxaline], the IC50 or EC50 (agonist or antagonist mode not specified) is less than 100 nM.

The molecule `Cc1nnc2n1-c1c(cc(F)c(-c3cccc4c3ccn4CCN(C)C)c1F)NC2(C)C` [Example 383, [2-[4-(7,9-Difluoro-1,4,4-trimethyl-5H-[1,2,4]triazolo[4,3-a]quinoxalin-8-yl)-1H-indol-1-yl]-ethyl]-dimethyl-amine] displayed an IC50 or EC50 (agonist or antagonist mode not specified) of 1000 to 15000 nM. `Cc1c(-c2cccc3[nH]ncc23)c(F)cc2c1-n1c(C)nnc1C(C)(C)N2` [Example 510, 7-Fluoro-8-(1H-indaxol-4-yl)-1,4,4,9-tetramethyl-5H-[1,2,4] triazolo[4,3-a]quinoxaline] yielded an IC50 or EC50 (agonist or antagonist mode not specified) of 100 to 1000 nM. In the case of `Cc1c(-c2cc(F)cc3c2ccn3C)c(Cl)cc2c1-n1c(C)nnc1C(C)(C)N2` [Example 519, 7-Chloro-8-(6-fluoro-1-methyl-1H-indol-4-yl)-1,4,4,9-tetramethyl-5H-[1,2,4]triazolo[4,3-a]quinoxaline], the IC50 or EC50 (agonist or antagonist mode not specified) was less than 100 nM. The result for `Cc1nnc2n1-c1c(cc(F)c(-c3cc(C(F)(F)F)cc4[nH]ccc34)c1C(F)(F)F)NC2(C)C` [Example 473, 7-Fluoro-1,4,4-trimethyl-9-(trifluoromethyl)-8-[6-(trifluoromethyl)-1H-indol-4-yl]-5H-[1,2,4]triazolo[4,3-a] quinoxaline] reads 100 to 1000 nM; that for `Cc1c[nH]c2c(-c3c(F)cc4c(c3C(F)(F)F)-n3c(C)nnc3C(C)(C)N4)cccc12` [Example 29, 7-fluoro-1,4,4-trimethyl-8-(3-methyl-1H-indol-7-yl)-9-(trifluoromethyl)-4,5-dihydro-[1,2,4]triazolo[4,3-a]quinoxaline], less than 100 nM.

In turn, `COc1cc2c(c(F)c1-c1cccc3c1ccn3S(C)(=O)=O)-n1c(C)nnc1C(C)(C)N2` [Example 263, 9-Fluoro-7-methoxy-1,4,4-trimethyl-8-(1-methylsulfonyl-1H-indol-4-yl)-5H-[1,2,4]triazolo[4,3-a]quinoxaline] showed an IC50 or EC50 (agonist or antagonist mode not specified) of 1000 to 15000 nM.

With `CCn1cc2c(-c3c(F)cc4c(c3F)-n3c(C)nnc3C(C)(C)N4)cccc2n1` [Example 237, 8-(2-Ethyl-2H-indazol-4-yl)-7,9-difluoro-1,4,4-trimethyl-5H-[1,2,4]triazolo[4,3-a]quinoxaline], the IC50 or EC50 (agonist or antagonist mode not specified) was 1000 to 15000 nM. `Cc1c(-c2cc(F)cc3c2ccn3CCO)ccc2c1-n1c(C)nnc1C(C)(C)N2` [Example 451, 2-[6-Fluoro-4-(1,4,4,9-tetramethyl-5H-[1,2,4]triazolo[4,3-a]quinoxalin-8-yl)-1H-indol-1-yl]-ethanol] displayed an IC50 or EC50 (agonist or antagonist mode not specified) of 100 to 1000 nM. Regarding `Cc1c(-c2cc(F)cc3c2ccn3S(C)(=O)=O)ccc2c1-n1c(C)nnc1C(C)(C)N2` [Example 453, 8-(6-Fluoro-1-methylsulfonyl-1H-indol-4-yl)-1,4,4,9-tetramethyl-5H-[1,2,4]triazolo[4,3-a]quinoxaline], the IC50 or EC50 (agonist or antagonist mode not specified) is less than 100 nM. In the case of `COc1c(-c2cccc3c2ccn3C)c(F)cc2c1-n1c(C)nnc1C(C)(C)N2` [Example 487, 7-Fluoro-9-methoxy-1,4,4-trimethyl-8-(1-methyl-1H-indol-4-yl)-5H-[1,2,4]triazolo[4,3-a] quinoxaline], the IC50 or EC50 (agonist or antagonist mode not specified) was in the range of 100 to 1000 nM. Then `Cc1nnc2n1-c1c(cc(F)c(-c3ccc(F)c4[nH]ccc34)c1C(F)(F)F)NC2(C)C` [Example 505, 7-Fluoro-8-(7-fluoro-1H-indol-4-yl)-1,4,4-trimethyl-9-(trifluoromethyl)-5H-[1,2,4]triazolo[4,3-a]quinoxaline], with 100 to 1000 nM; and `Cc1c(-c2cccc3c(C#CC(C)(C)O)c[nH]c23)c(F)cc2c1-n1c(C)nnc1C(C)(C)N2` [Example 39], with 100 to 1000 nM.
